Measurements as given in paper PMC8160934, “Different Biological Activities of Histidine-Rich Peptides Are Favored by Variations in Their Design” (Toxins, 2021).
“Also recorded” adds a separate entry of the source.

Tests used:
[1] = tested on: E. coli bacteria (ATCC 25922); conditions: cited from earlier work
Experimental: Therefore, the antibacterial properties of both series of peptides were analyzed in Mueller–Hinton (MH) broth at pH 5 by determining the minimal inhibitory concentrations (MICs). […] Higher antimicrobial activity is observed when the angle increases. […] In contrast, for ...

[2] = tested on: HCT116 cells; assay: Luciferase protein transduction; format: cell-based, human; conditions: HCT116, 2 µg recombinant luciferase with 10-32 µg peptide, 3 h in serum-free medium, mean of duplicates; result in words
Experimental: To perform a rapid screening of the protein transduction activities of the two series of peptides, we selected to deliver the luciferase protein from Photinus pyralis, which has a molecular weight (MW) of 62 kDa and an isoelectric point (pI) of 6.3. Indeed, the measurement of the activity of this enzyme is fast and very sensitive. […] Increasing amounts of peptides were added to a fixed amount of luciferase, and after 3 h of incubation with the human colon cancer cells HCT116, enzymatic activity was measured.
Figure 1 Transduction of the luciferase protein. HCT116 cells in 48-well plates were treated with 2 µg of recombinant luciferase (Rec. Luc) (per duplicate) in the presence or absence of LAH4 peptides (LAH4-Ln series in (A) and LAH4-An series in (B)). After 3 h of incubation in serum-free medium, cells were washed once with 1 mL/well of phosphate buffer saline (PBS), lysed, and the luciferase activity was determined. […] For each peptide, four conditions were tested: 10, 16, 24 and 32 µg of peptide/2 µg recombinant luciferase, except for LAH4 (16, 24 and 32 µg). Non-complexed recombinant luciferase was used as the control (black bar). The hydrophilic angles are shown in italics. […] It is uncertain whether it counts as a property result. The luciferase activities are shown only as bars, with no printed numbers, and are left out.
Protein complexes were generated using increasing peptide/protein w/w ratios.
Then, 0.25 mL of serum-free medium containing the peptide/protein complexes was transferred into each well. After an incubation time of 3 h at 37 °C the medium was removed, cells were washed once with 1 mL/well of PBS, and then 100 μL of lysis buffer was added per well. Luciferase activity and protein content were measured as described above.

[3] = tested on: VSV and GALVTR pseudotyped lentiviruses; conditions: cited from earlier work
[4] = tested on: E. coli bacteria (ATCC 25922); assay: Broth microdilution antibacterial assay (MIC) in Mueller–Hinton broth, pH 5; format: cell-based; conditions: E. coli, Mueller–Hinton broth pH 5; x50 from Origin fits of the growth curves of Figure 3 (concentration range 100 µM to 0.52 µM); fit error given; * error estimated in the range of the 1.5-fold dilution steps
Experimental: Therefore, the antibacterial properties of both series of peptides were analyzed in Mueller–Hinton (MH) broth at pH 5 by determining the minimal inhibitory concentrations (MICs).
Figure 3 Bacterial growth as a function of peptide concentration for the LAH4-Ln (A) and the LAH4-An series (B). The average of two experimental data sets (each data point derived from triplicates under the same experiment conditions) covering the concentration range 100 µM to 0.52 µM are shown by the relative bacterial growth when compared to bacteria in the absence of peptide (=100%). To guide the eye, the data have been fitted with the function ymin + (ymax − ymin)/(1 + (x/xo)^p)^s using the OriginPro software. […] The assay was performed in Mueller–Hinton broth, pH 5.
A broth microdilution assay was used to determine the minimal inhibitory concentration (MIC). A peptide aliquot of 1 mg was first solubilized in 50% ethanol (10 mM) then diluted in H2O to get a 300 μM peptide stock solution.
For all the activity tests, E. coli bacteria (ATCC® 25922^TM, Thermo Fisher Scientific, Courtaboeuf, France) were used. Briefly, some colonies from E. coli spread on gelose were resuspended in Mueller–Hinton broth, pH 7.4. After incubation at 37 °C for about 6 h this preculture was diluted to OD550nm = 0.2 in MH at pH5 and allowed to grow to reach the exponential phase (OD550nm = 1–2). After two-step dilution in MH pH5, the working bacteria suspension corresponding to 1.10^5–2.10^5 colony-forming units (CFU)/mL was obtained.
The antimicrobial testing was carried out in 96-well microplates (sterile polystyrene untreated with F-bottom, Thermo Scientific Nunc A/S, Roskilde, Denmark). The first column of the plate contains the highest final concentration (Cf) of peptide to test (two experiments were done: the first one starting at Cf 100 μM and a second one starting at 30 μM). All samples were added to the first column of the plate and subsequently spread onto the plate by a 1.5-fold dilution series in 10 steps. The last columns correspond to the positive and negative control conditions, respectively. Finally, the bacterial working suspension was distributed (50 μL at 1.10^5–2.10^5 CFU/mL in MH1X at pH 5) to each well except for the negative control (MH1X at pH5). The final volume was 100 μL/well and the range of peptide concentrations tested was from 100 μM to 1.73 μM for the first experiment and from 30 μM to 0.52 μM for the second experiment. The microplates were incubated at 37 °C for 12 h before bacterial growth was assessed by measuring the OD600. The initial bacterial density for each experiment was checked by spreading 100 μL of the working bacterial suspension, diluted 1/100 and 1/500 in MH1X, pH 5 on MH agar plates. After overnight incubation at 37 °C, the CFU were counted and the CFU/mL were determined. The percentage of bacterial growth compared to the positive control allows one to determine the MIC. The MIC values represent the average of the lowest tested peptide concentration (from both experiments) where most (at least 80%) of the bacterial growth is inhibited.

[5] = in the transfection and other phosphate-containing buffers; cited from earlier work
[6] = tested on: U87 cells; assay: DNA transfection with p-Luc plasmid, luciferase expression; conditions: 1.5 µg pDNA with 7.5-25 µg peptide, 2 h 30 min, read one day post-transfection, mean of duplicates, result in words
Experimental: In vitro cell transfection experiments were performed using the plasmid p-Luc (7.6 kb), which is an expression plasmid encoding the firefly luciferase gene under the control of the human cytomegalovirus (CMV) immediate–early promoter. In total, 55,000 U87 cells were plated in 48-well plates one day before the experiment was performed. For transfection, 0.25 mL of serum-free culture medium containing the DNA complexes was deposited into each well of the duplicate. After incubation for approximately 2 h 30 min at 37 °C the medium was replaced with a fresh one containing serum. Luciferase activity was measured as described below in the cell lysate one day after transfection.
Transfection complexes were prepared as follows: for a duplicate, 1.5 μg of plasmid DNA and the desired amount of peptide were each diluted into 25 μL of acetate buffer pH 5 and gently mixed. DNA complexes were generated using increasing peptide/DNA w/w ratios. After 20 min of incubation at room temperature, the mixture was diluted with culture medium to obtain a final volume of 0.5 mL.
For luciferase activity, cells were harvested in 100 μL of lysis buffer (8 mM MgCl2, 1 mM DTT, 1 mM EDTA, 0.6% Triton X-100, 15% glycerol, and 25 mM Tris-phosphate buffer pH 7.8). The cell lysate was then transferred into Eppendorf tubes and centrifuged for 7 min at 10,000× g to pellet debris. Luciferase light units were measured in a 96-well plate format with a Centro LB luminometer (Berthold) from an aliquot of the supernatant (2 μL) with 1 s integration after automatic injection of 50 μL assay buffer (lysis buffer without Triton X-100 but supplemented with 2 mM ATP) and 50 μL of a luciferin solution (167 μM in water). Luciferase background was subtracted from each value and the protein content of the transfected cells was measured by Bradford dye-binding using the BioRad protein assay (Bio-Rad). The transfection efficiency was expressed as light units/s/mg protein (light units measured over a period of 1 s, and the values were then normalized after measurement of the amount of protein present in each well). The reported values are the mean of duplicates. Error bars represent the standard deviation of the mean.
glioblastoma U87 cells. Increasing amounts of peptide were mixed with a constant amount of reporter
plasmid (1.5 µg per duplicate of pDNA) and the complexes were incubated for 2h 30min with the
cells plated in 48-well plates. The transfection medium was then removed and replaced with fresh
culture medium supplemented with 10% serum. Luciferase activity was measured one day post-
transfection. The transfection efficiency is expressed as light units/s/mg protein and the reported
values are the mean of duplicates. Error bars represent the standard deviation of the mean.

[7] = naturally occurring antimicrobial peptides; cited from earlier work
From the text: The pronounced antimicrobial activities of cationic amphipathic peptides including LAH4 sequences have been associated with the perforation of microbial membranes. Indeed, under conditions where the peptides align along the membrane surface, high concentrations of LAH4 peptides result in the lysis of lipid bilayers. It is therefore unexpected that antimicrobial activity is highest for large hydrophilic angles, i.e., in inverse correlation with calcein release (Table 2, Figure 5). However, some of the naturally occurring antimicrobial pept ...

[8] = tested on: HCT116 cells; assay: Saporin delivery, MTS cell viability; format: cell-based, human; conditions: HCT116, 0.54 µg/triplicate non-complexed saporin, 2 h 30 min, MTS two days later; result in words
Experimental: Figure 2 Transduction of the plant toxin saporin. HCT116 cells plated in 96-well plates were treated with 0.54 µg/triplicate of saporin in the absence or presence of LAH4 peptides (LAH4-Ln series in (A) and LAH4-An series in (B)). […] Two days later, an MTS assay was performed. The cell viability efficiency is expressed relative to untreated cells (=100%). […] For each peptide 3 conditions were tested: 4.05, 5.4 and 8.1 µg of peptide/0.54 µg saporin. Untreated cells (=100%; purple bar) and non-complexed saporin (black bar) were used as the control. The hydrophilic angles are shown on top in italics. […] The cell viability values appear only as bars and are not printed, so none are given. […]
Cell metabolic activity was measured by using an MTS (3-(4,5-dimethylthiazol-2-yl)-5-(3-carboxymethoxyphenyl)-2-(4-sulfophenyl)-2H-tetrazolium) assay (CellTiter 96® AQ ueous One Solution Cell Proliferation Assay, Promega). […] Plates were read at 490 nm (reagent absorbance) and 680 nm (background) (SP200, Safas, Monaco). The results were expressed by the subtraction of background absorbance and the expression of viability relative to non-treated controls (considered as 100% viability).

Row | Substance | luciferase protein transduction efficiency (luciferase activity, light units/s/mg protein) [2] | MIC50 [4] [µM] | hydrophilic angle [7] [°] | further results
1 | H-KKALLALALHHLAHLALHLALALKKA-NH2 [LAH4] | the most efficient peptides | – | – | pH dependence of antimicrobial activity ([1]; E. coli, pH 5 compared to pH 7.5, result in words): considerably more pronounced at pH 5; MIC ([1]; reference peptide LAH4, E. coli): 8.8 µM
2 | H-KKALLHAALAHLLALAHHLLALLKKA-NH2 [LAH4-A4, isomer of LAH4, LAH4-An series, also named Vectofusin-1] | – | 6 | – | lentiviral transduction enhancement [3]: highly efficient; also recorded: enhances the transduction; formation of fibers [5]: formation of fibers
3 | H-KKALLHALLAHLAALLHALLAHLKKA-NH2 [LAH4-A5, isomer of LAH4, LAH4-An series] | the most efficient peptides | 5.3 | – | DNA transfection activity (luciferase activity) [6]: high levels of activity
4 | cecropin | – | – | 180 | –
5 | magainin 2 | – | – | 180 | –
6 | saporin | – | – | – | cell death induced by saporin alone [8]: low levels of cell death
